Measurements taken from the NIST ThermoML archive (doi:10.1016/j.fluid.2014.11.020).
Numbers after ± are expanded uncertainties.

Experiment: activity coefficient (dimensionless); of the first substance listed, at infinite dilution; xn = mol fraction of the nth substance listed
Conditions: Liquid, Chromatography, x1 = 0

SMILES	activity coefficient (323.15 K)	activity coefficient (333.15 K)	activity coefficient (343.15 K)
C1CCCCC1 [cyclohexane] + CCCOC[n+]1ccn(C)c1.N#C[N-]C#N	26.6 ± 1.8	24.3 ± 1.7	22.7 ± 1.6
CCCCO [butan-1-ol] + Cn1cc[n+](COCCCOC[n+]2ccn(C)c2)c1.O=S(=O)([N-]S(=O)(=O)C(F)(F)F)C(F)(F)F.O=S(=O)([N-]S(=O)(=O)C(F)(F)F)C(F)(F)F	2.02 ± 0.14	1.85 ± 0.12	1.64 ± 0.11
CC(C)CO [2-methyl-1-propanol] + CCCCCCCCn1cc[n+](COCCCOC[n+]2ccn(CCCCCCCC)c2C)c1C.O=S(=O)([N-]S(=O)(=O)C(F)(F)F)C(F)(F)F.O=S(=O)([N-]S(=O)(=O)C(F)(F)F)C(F)(F)F	0.8 ± 0.05	0.72 ± 0.05	0.67 ± 0.05
CC(C)CO [2-methyl-1-propanol] + CN(C)c1cc[n+](COCCCOC[n+]2ccc(N(C)C)cc2)cc1.O=S(=O)([N-]S(=O)(=O)C(F)(F)F)C(F)(F)F.O=S(=O)([N-]S(=O)(=O)C(F)(F)F)C(F)(F)F	1.85 ± 0.12	1.66 ± 0.11	1.5 ± 0.1
C[N+](=O)[O-] [nitromethane] + CCCCCCCCn1cc[n+](COCCCOC[n+]2ccn(CCCCCCCC)c2C)c1C.O=S(=O)([N-]S(=O)(=O)C(F)(F)F)C(F)(F)F.O=S(=O)([N-]S(=O)(=O)C(F)(F)F)C(F)(F)F	0.31 ± 0.03	0.29 ± 0.03	0.47 ± 0.04
CCCCCCCCCC [decane] + CCCCCCCCn1cc[n+](COCCCOC[n+]2ccn(CCCCCCCC)c2C)c1C.N#C[N-]C#N.N#C[N-]C#N	19.5 ± 1.3	19.5 ± 1.3	17.8 ± 1.2
CCC(C)=O [butanone] + CCCCCCCCn1cc[n+](COCCCOC[n+]2ccn(CCCCCCCC)c2C)c1C.N#C[N-]C#N.N#C[N-]C#N	0.56 ± 0.04	0.5 ± 0.04	0.46 ± 0.04
Cc1cccc(C)c1 [1,3-dimethylbenzene] + CCCCCCCCn1cc[n+](COCCC)c1C.O=S(=O)([N-]S(=O)(=O)C(F)(F)F)C(F)(F)F	1.02 ± 0.06	1 ± 0.06	1.01 ± 0.06
CCC(C)=O [butanone] + CCCCCCCCn1cc[n+](COCCCOC[n+]2ccn(CCCCCCCC)c2C)c1C.O=S(=O)([N-]S(=O)(=O)C(F)(F)F)C(F)(F)F.O=S(=O)([N-]S(=O)(=O)C(F)(F)F)C(F)(F)F	0.21 ± 0.03	0.19 ± 0.03	0.18 ± 0.03
C[N+](=O)[O-] [nitromethane] + CCCOC[n+]1ccn(C)c1.F[B-](F)(F)F	0.65 ± 0.04	0.66 ± 0.05	0.67 ± 0.05
CC(C)CO [2-methyl-1-propanol] + CCCCCCCCn1cc[n+](COCCC)c1C.O=S(=O)([N-]S(=O)(=O)C(F)(F)F)C(F)(F)F	1.21 ± 0.08	1.09 ± 0.07	1.03 ± 0.06
Cc1cccc(C)c1 [1,3-dimethylbenzene] + CCCCCCCCn1cc[n+](COCCCOC[n+]2ccn(CCCCCCCC)c2C)c1C.N#C[N-]C#N.N#C[N-]C#N	1.36 ± 0.09	1.37 ± 0.09	1.39 ± 0.09
CCCCCCCC [octane] + CCCOC[n+]1ccn(C)c1.F[B-](F)(F)F	292 ± 20	213 ± 15	182 ± 13
CCc1ccccc1 [ethylbenzene] + CCCOC[n+]1ccn(C)c1.O=S(=O)([N-]S(=O)(=O)C(F)(F)F)C(F)(F)F	2.55 ± 0.17	2.51 ± 0.17	2.51 ± 0.17
Cc1ccccc1C [1,2-dimethylbenzene] + CCCCCCCCn1cc[n+](COCCCOC[n+]2ccn(CCCCCCCC)c2C)c1C.N#C[N-]C#N.N#C[N-]C#N	1.16 ± 0.07	1.18 ± 0.08	1.22 ± 0.08
ClCCl [dichloromethane] + CCCOC[n+]1ccn(C)c1.O=S(=O)([N-]S(=O)(=O)C(F)(F)F)C(F)(F)F	0.71 ± 0.05	0.79 ± 0.05	0.75 ± 0.05
CCCCCCCCCCC [undecane] + Cn1cc[n+](COCCCOC[n+]2ccn(C)c2)c1.O=S(=O)([N-]S(=O)(=O)C(F)(F)F)C(F)(F)F.O=S(=O)([N-]S(=O)(=O)C(F)(F)F)C(F)(F)F	193 ± 13	191 ± 13	162 ± 11
CCCCCCC [heptane] + CCCCCCCCn1cc[n+](COCCC)c1C.O=S(=O)([N-]S(=O)(=O)C(F)(F)F)C(F)(F)F	4.64 ± 0.32	4.56 ± 0.31	3.98 ± 0.27
CCC(C)CC [3-methylpentane] + CCCOC[n+]1ccn(C)c1.O=S(=O)([N-]S(=O)(=O)C(F)(F)F)C(F)(F)F	14.4 ± 0.98	10.8 ± 0.74	–
CC1CCCCC1 [methylcyclohexane] + CCCCCCCCn1cc[n+](COCCCOC[n+]2ccn(CCCCCCCC)c2C)c1C.O=S(=O)([N-]S(=O)(=O)C(F)(F)F)C(F)(F)F.O=S(=O)([N-]S(=O)(=O)C(F)(F)F)C(F)(F)F	2.94 ± 0.2	2.71 ± 0.18	2.73 ± 0.19

SMILES	activity coefficient (323.15 K)	activity coefficient (333.15 K)	activity coefficient (343.15 K)
c1ccccc1 [benzene] + CCCCCCCCn1cc[n+](COCCCOC[n+]2ccn(CCCCCCCC)c2C)c1C.O=S(=O)([N-]S(=O)(=O)C(F)(F)F)C(F)(F)F.O=S(=O)([N-]S(=O)(=O)C(F)(F)F)C(F)(F)F	0.42 ± 0.04	0.41 ± 0.03	0.41 ± 0.03
CCCCCCCCCCC [undecane] + CCCCCCCCn1cc[n+](COCCC)c1C.N#C[N-]C#N	20.6 ± 1.4	19.6 ± 1.3	18.2 ± 1.2
CCCC(C)=O [pentan-2-one] + CCCOC[n+]1ccn(C)c1.O=S(=O)([N-]S(=O)(=O)C(F)(F)F)C(F)(F)F	0.72 ± 0.05	0.72 ± 0.05	0.73 ± 0.05
CCCO [propan-1-ol] + CCCOC[n+]1ccn(Cc2ccccc2)c1.N#C[N-]C#N	0.84 ± 0.05	0.7 ± 0.05	0.69 ± 0.05
ClC(Cl)(Cl)Cl [tetrachloromethane] + CCCOC[n+]1ccn(Cc2ccccc2)c1.O=S(=O)([N-]S(=O)(=O)C(F)(F)F)C(F)(F)F	1.87 ± 0.13	1.83 ± 0.12	1.81 ± 0.12
CCCCCC [hexane] + Cn1cc[n+](COCCCOC[n+]2ccn(C)c2)c1.O=S(=O)([N-]S(=O)(=O)C(F)(F)F)C(F)(F)F.O=S(=O)([N-]S(=O)(=O)C(F)(F)F)C(F)(F)F	18.2 ± 1.2	31 ± 2.1	–
ClC(Cl)(Cl)Cl [tetrachloromethane] + CCCOC[n+]1ccn(Cc2ccccc2)c1.N#C[N-]C#N	2.5 ± 0.17	2.58 ± 0.18	2.67 ± 0.18
CCC[N+](=O)[O-] [1-nitropropane] + CCCOC[n+]1ccn(C)c1.N#C[N-]C#N	1.36 ± 0.09	1.37 ± 0.09	1.39 ± 0.09
C1CCCCCC1 [cycloheptane] + Cn1cc[n+](COCCCOC[n+]2ccn(C)c2)c1.O=S(=O)([N-]S(=O)(=O)C(F)(F)F)C(F)(F)F.O=S(=O)([N-]S(=O)(=O)C(F)(F)F)C(F)(F)F	41.5 ± 2.8	51.9 ± 3.5	63.5 ± 4.3
CCCCCCCC [octane] + CCCOC[n+]1ccn(Cc2ccccc2)c1.O=S(=O)([N-]S(=O)(=O)C(F)(F)F)C(F)(F)F	16.1 ± 1.1	12.9 ± 0.88	12.5 ± 0.85
Cc1ccccc1 [toluene] + CCCCCCCCn1cc[n+](COCCCOC[n+]2ccn(CCCCCCCC)c2C)c1C.O=S(=O)([N-]S(=O)(=O)C(F)(F)F)C(F)(F)F.O=S(=O)([N-]S(=O)(=O)C(F)(F)F)C(F)(F)F	0.54 ± 0.04	0.53 ± 0.04	0.54 ± 0.04
ClCCl [dichloromethane] + CCCCCCCCn1cc[n+](COCCC)c1C.O=S(=O)([N-]S(=O)(=O)C(F)(F)F)C(F)(F)F	0.42 ± 0.04	0.43 ± 0.04	0.48 ± 0.04
CCCCCCCCCCCC [dodecane] + CCCOC[n+]1ccc(N(C)C)cc1.O=S(=O)([N-]S(=O)(=O)C(F)(F)F)C(F)(F)F	73.5 ± 5	69.4 ± 4.8	61.7 ± 4.2
Cc1cccc(C)c1 [1,3-dimethylbenzene] + Cn1cc[n+](COCCCOC[n+]2ccn(C)c2)c1.O=S(=O)([N-]S(=O)(=O)C(F)(F)F)C(F)(F)F.O=S(=O)([N-]S(=O)(=O)C(F)(F)F)C(F)(F)F	2.39 ± 0.16	2.41 ± 0.16	2.38 ± 0.16
C1CCCCCC1 [cycloheptane] + CCCOC[n+]1ccc(N(C)C)cc1.O=S(=O)([N-]S(=O)(=O)C(F)(F)F)C(F)(F)F	18.6 ± 1.3	24.6 ± 1.7	31.7 ± 2.2
Cc1cccc(C)c1 [1,3-dimethylbenzene] + CCCOC[n+]1ccn(C)c1.O=S(=O)([N-]S(=O)(=O)C(F)(F)F)C(F)(F)F	2.59 ± 0.18	2.54 ± 0.17	2.54 ± 0.17
C[N+](=O)[O-] [nitromethane] + CN(C)c1cc[n+](COCCCOC[n+]2ccc(N(C)C)cc2)cc1.O=S(=O)([N-]S(=O)(=O)C(F)(F)F)C(F)(F)F.O=S(=O)([N-]S(=O)(=O)C(F)(F)F)C(F)(F)F	0.39 ± 0.03	0.39 ± 0.03	0.38 ± 0.03
Cc1ccccc1 [toluene] + CCCCCCCCn1cc[n+](COCCC)c1C.O=S(=O)([N-]S(=O)(=O)C(F)(F)F)C(F)(F)F	0.76 ± 0.05	0.76 ± 0.05	0.77 ± 0.05
c1ccncc1 [pyridine] + CN(C)c1cc[n+](COCCCOC[n+]2ccc(N(C)C)cc2)cc1.O=S(=O)([N-]S(=O)(=O)C(F)(F)F)C(F)(F)F.O=S(=O)([N-]S(=O)(=O)C(F)(F)F)C(F)(F)F	0.29 ± 0.03	0.31 ± 0.03	0.32 ± 0.03
CO [methanol] + CCCOC[n+]1ccn(C)c1.O=S(=O)([N-]S(=O)(=O)C(F)(F)F)C(F)(F)F	1.2 ± 0.08	1.12 ± 0.07	1.04 ± 0.07
